Experimental data published in US20120046284A1, “Salts and hydrates of 4-[(3-chloro-4-fluoro-phenyl)amino]-6-(cis-4--cyclohexan-1-yloxy)-7-methoxy-quinazoline, their use as a medicament and the preparation thereof” (BOEHRINGER INGELHEIM INTERNATIONAL GMBH, priority 2010, published 2012).
≈ marks a conversion by molar mass, not a printed value. Structures can show the parent of a compound that is named as a salt. Each block holds one molecule with its values, some of them ahead of it.

Key:
[1] = Solubility tests in water (2 hours shaking at ambient temperature, UV spectroscopy; pH of saturated solution); assay type: physicochemical; conditions: for solubility: in water, 2 hours, ambient temperature; for intrinsic pH of the saturated solution: saturated aqueous solution
Description: The solubility of the different crystalline forms of formula (I) or (6) in water is determined as follows: approx. 5 mg of the corresponding form are added to 5 ml of water. The mixture is shaken for 2 hours at ambient temperature in an overhead shaker made by the Heidolph company. Then the undissolved fractions are filtered off through a 0.45 μm PTFE filter. The dissolved fraction in the filtrate is determined by UV spectroscopy. In addition, the pH of the saturated aqueous solution is also measured with a standard pH electrode.

human EGF-R = target: T1, human EGF-R (Homo sapiens, UniProt P00533); test: Inhibition of the EGFR-dependent proliferation (EGF-stimulated murine haematopoietic cell line expressing human EGF-R); assay type: cell-based; conditions: 20 ng/ml human EGF, 48 hours at 37° C.
T1 construct: expressed in transfected cells
Description: A murine haematopoietic cell line is genetically modified so as to express functional human EGF-R. The proliferation of this cell line can therefore be stimulated by EGF.
The test is carried out as follows:
The cells are cultivated in RPMI/1640 medium. The proliferation is stimulated with 20 ng/ml of human EGF (Promega). To investigate the inhibitory activity of the compounds according to the invention these compounds are dissolved in 100% dimethylsulphoxide (DMSO) and added to the cultures in various dilutions, the maximum DMSO concentration being 1%. The cultures are incubated for 48 hours at 37° C.
In order to determine the inhibitory activity of the compound (I.1) according to the invention the relative cell number is measured in O.D. units using the Cell Titer 96TM AQueous Non-Radioactive Cell Proliferation Assay (Promega). The relative cell number is calculated as a percentage of the control and the concentration of active substance which inhibits the proliferation of the cells by 50% (IC50) is derived therefrom.

[2] = Water absorption tests (DVS, hygroscopic characteristics); assay type: physicochemical
Description: A DVS-1 made by Surface Measurement Systems (=SMS) is used to investigate the hygroscopic characteristics: the following humidity profiles are used: from 10-90% r.h. in steps of 10%, absorption and desorption profiles are recorded, typical weights: 10-20 mg The corresponding diagrams (kinetic and isothermic plot) of the different forms are shown in FIGS. 1c+d-5c+d.

[3] = listed as anhydrous free base (6)
[4] = listed as hemihydrochloride sesquihydrate (I.1)
[5] = listed as monohydrate free base (I.2)

T1 sequence (P00533 25-1210): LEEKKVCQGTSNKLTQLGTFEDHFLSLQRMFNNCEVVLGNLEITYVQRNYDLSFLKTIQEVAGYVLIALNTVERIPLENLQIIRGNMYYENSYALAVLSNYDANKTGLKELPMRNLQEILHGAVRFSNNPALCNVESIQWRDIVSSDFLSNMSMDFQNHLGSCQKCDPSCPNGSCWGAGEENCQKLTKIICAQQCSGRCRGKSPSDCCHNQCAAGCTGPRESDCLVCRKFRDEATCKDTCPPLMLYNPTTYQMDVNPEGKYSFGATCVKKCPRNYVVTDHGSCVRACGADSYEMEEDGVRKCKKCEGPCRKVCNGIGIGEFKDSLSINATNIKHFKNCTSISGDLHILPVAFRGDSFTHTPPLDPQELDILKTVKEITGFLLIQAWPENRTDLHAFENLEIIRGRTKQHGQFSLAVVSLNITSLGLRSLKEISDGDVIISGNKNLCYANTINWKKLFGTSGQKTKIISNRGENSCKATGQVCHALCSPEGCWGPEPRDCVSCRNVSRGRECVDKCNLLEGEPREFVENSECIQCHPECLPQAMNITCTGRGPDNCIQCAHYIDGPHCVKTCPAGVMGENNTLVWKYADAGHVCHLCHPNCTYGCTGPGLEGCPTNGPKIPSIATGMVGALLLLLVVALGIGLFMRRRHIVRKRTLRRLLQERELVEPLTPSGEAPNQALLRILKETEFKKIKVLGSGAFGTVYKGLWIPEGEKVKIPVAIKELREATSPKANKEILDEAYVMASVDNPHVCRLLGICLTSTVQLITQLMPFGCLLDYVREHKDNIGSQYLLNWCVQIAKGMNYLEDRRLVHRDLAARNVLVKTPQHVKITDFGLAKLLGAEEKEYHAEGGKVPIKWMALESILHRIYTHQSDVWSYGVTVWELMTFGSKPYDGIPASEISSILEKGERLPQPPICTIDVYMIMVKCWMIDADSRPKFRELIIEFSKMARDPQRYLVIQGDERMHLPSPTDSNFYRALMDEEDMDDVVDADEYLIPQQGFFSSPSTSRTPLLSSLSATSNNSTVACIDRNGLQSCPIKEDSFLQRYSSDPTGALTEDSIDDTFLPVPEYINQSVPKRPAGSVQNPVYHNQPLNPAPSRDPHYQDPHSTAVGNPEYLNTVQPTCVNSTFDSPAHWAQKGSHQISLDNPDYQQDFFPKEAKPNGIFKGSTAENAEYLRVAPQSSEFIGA

solubility [1, 3]: <1 µg/mL
intrinsic pH of the saturated solution [1, 3]: 5.9
SMILES: COc1cc2ncnc(Nc3ccc(F)c(Cl)c3)c2cc1O[C@H]1CC[C@@H](N(C)C(=O)N2CCOCC2)CC1 [(6), 4-[(3-chloro-4-fluoro-phenyl)amino]-6-(cis-4-{N-[(morph-1-olin-4-yl)carbonyl]-N-methyl-amino}-cyclohexan-1-yloxy)-7-methoxy-quinazoline]

solubility [1, 4]: 170 µg/mL (≈ 312 µM)
intrinsic pH of the saturated solution [1, 4]: 6.5
IC50 (human EGF-R): 10 nM
SMILES: COc1cc2ncnc(Nc3ccc(F)c(Cl)c3)c2cc1O[C@H]1CC[C@@H](N(C)C(=O)N2CCOCC2)CC1 [Compound (I.1), 4-[(3-chloro-4-fluoro-phenyl)amino]-6-(cis-4-{N-[(morph-1-olin-4-yl)carbonyl]-N-methyl-amino}-cyclohexan-1-yloxy)-7-methoxy-quinazoline]
hygroscopic characteristics: change in particle size or phase depending on the relative humidity [2]: no change in particle size or phase change takes place

solubility [1, 5]: <1 µg/mL
intrinsic pH of the saturated solution [1, 5]: 5.9
SMILES: COc1cc2ncnc(Nc3ccc(F)c(Cl)c3)c2cc1O[C@H]1CC[C@@H](N(C)C(=O)N2CCOCC2)CC1 [Compound (I.2), 4-[(3-chloro-4-fluoro-phenyl)amino]-6-(cis-4-{N-[(morph-1-olin-4-yl)carbonyl]-N-methyl-amino}-cyclohexan-1-yloxy)-7-methoxy-quinazoline]

solubility [1]: 41 µg/mL
intrinsic pH of the saturated solution [1]: 3.3
SMILES: COc1cc2ncnc(Nc3ccc(F)c(Cl)c3)c2cc1O[C@H]1CC[C@@H](N(C)C(=O)N2CCOCC2)CC1 [high-melting form monohydrochloride (I.3)] [4-[(3-chloro-4-fluoro-phenyl)amino]-6-(cis-4-{N-[(morph-1-olin-4-yl)carbonyl]-N-methyl-amino}-cyclohexan-1-yloxy)-7-methoxy-quinazoline]

solubility [1]: 47 µg/mL
intrinsic pH of the saturated solution [1]: 4.0
SMILES: COc1cc2ncnc(Nc3ccc(F)c(Cl)c3)c2cc1O[C@H]1CC[C@@H](N(C)C(=O)N2CCOCC2)CC1 [low-melting form monohydrochloride (I.3), 4-[(3-chloro-4-fluoro-phenyl)amino]-6-(cis-4-{N-[(morph-1-olin-4-yl)carbonyl]-N-methyl-amino}-cyclohexan-1-yloxy)-7-methoxy-quinazoline]
